From ChEMBL document CHEMBL3046289, “Synthesis and in vitro antimicrobial activity of some newer quinazolinonesulfonamide linked hybrid heterocyclic entities derived from glycine” (2013) come the findings set out here.

Common to all, as to assay type: functional
One test deals with Staphylococcus aureus. Put plainly: Antibacterial activity against Staphylococcus aureus MTCC 2940 assessed as growth inhibition after 24 hr by broth microdilution method. To be noted: MTCC 2940, 24 h. On the technique in general: In broth dilution the organism is exposed to a series of concentrations in liquid medium.
The test system of another test is Klebsiella pneumoniae. Put plainly: Antibacterial activity against Klebsiella pneumoniae MTCC 139 assessed as growth inhibition after 24 hr by broth microdilution method. To be noted: MTCC 139, 24 h.
The next test relates to Escherichia coli. Put plainly: Antibacterial activity against Escherichia coli MTCC 443 assessed as growth inhibition after 24 hr by broth microdilution method. The following applies: MTCC 443, 24 h.
For a further test, the system named is Candida albicans. Put plainly: Antifungal activity against Candida albicans MTCC 227 assessed as growth inhibition after 48 hr by broth microdilution method. The following applies: MTCC 227, 48 h.
For another test, the system named is Pseudomonas aeruginosa. Put plainly: Antibacterial activity against Pseudomonas aeruginosa MTCC 1688 assessed as growth inhibition after 24 hr by broth microdilution method. The following applies: MTCC 1688, 24 h.
The subject of a further test is Aspergillus niger. Briefly: Antifungal activity against Aspergillus niger MTCC 282 assessed as growth inhibition after 48 hr by broth microdilution method. To be noted: MTCC 282, 48 h.
For another test, the system named is Bacillus cereus. Put plainly: Antibacterial activity against Bacillus cereus MTCC 1305 assessed as growth inhibition after 24 hr by broth microdilution method. The following applies: MTCC 1305, 24 h.

Values after ≈ are worked out from the molar mass of the structure shown.

For orientation: MIC means the lowest concentration that inhibits growth of the organism. In the case of `CC(=O)Nc1ccc(S(=O)(=O)NCc2nc3ccccc3c(=O)n2-c2ccc([N+](=O)[O-])cc2)cc1`, the minimum inhibitory concentration (MIC) in the test on Staphylococcus aureus was 80 µg/mL (≈ 162 µM); in the test on Klebsiella pneumoniae, 105 µg/mL (≈ 213 µM); with Escherichia coli it was 70 µg/mL (≈ 142 µM); in the test with Candida albicans, 70 µg/mL (≈ 142 µM); with Pseudomonas aeruginosa it was 90 µg/mL (≈ 182 µM); with Aspergillus niger, 55 µg/mL (≈ 111 µM). Also, the MIC in the test with Bacillus cereus stood at 85 µg/mL (≈ 172 µM).

With `Nc1ccc(S(=O)(=O)NCc2nc3ccccc3c(=O)n2-c2ccccc2Cl)cc1`, the MIC with Staphylococcus aureus stood at 60 µg/mL (≈ 136 µM); in the test on Klebsiella pneumoniae it was 90 µg/mL (≈ 204 µM); with Escherichia coli, 55 µg/mL (≈ 125 µM); in the test on Candida albicans, 60 µg/mL (≈ 136 µM); in the test on Pseudomonas aeruginosa, 60 µg/mL (≈ 136 µM); with Aspergillus niger it was 50 µg/mL (≈ 113 µM). Besides, the MIC in the test with Bacillus cereus amounted to 90 µg/mL (≈ 204 µM).

For `Nc1ccc(S(=O)(=O)NCc2nc3ccccc3c(=O)n2-c2cccc(Cl)c2)cc1`, the MIC came out at 55 µg/mL (≈ 125 µM) in the test on Staphylococcus aureus; 80 µg/mL (≈ 181 µM) in the test with Klebsiella pneumoniae; 50 µg/mL (≈ 113 µM) with Escherichia coli; 55 µg/mL (≈ 125 µM) in the test with Candida albicans; 55 µg/mL (≈ 125 µM) with Pseudomonas aeruginosa; 50 µg/mL (≈ 113 µM) in the test with Aspergillus niger. Also, in the test with Bacillus cereus, the MIC was 65 µg/mL (≈ 147 µM).

As to `Nc1ccc(S(=O)(=O)NCc2nc3ccccc3c(=O)n2-c2ccc(Cl)cc2)cc1`, the minimal inhibitory concentration (MIC) in the test with Staphylococcus aureus is 45 µg/mL (≈ 102 µM); with Klebsiella pneumoniae, 75 µg/mL (≈ 170 µM); in the test with Escherichia coli, 45 µg/mL (≈ 102 µM); with Candida albicans it was 45 µg/mL (≈ 102 µM); in the test with Pseudomonas aeruginosa, 50 µg/mL (≈ 113 µM); in the test on Aspergillus niger, 40 µg/mL (≈ 90.7 µM). In addition, the MIC in the test on Bacillus cereus stood at 55 µg/mL (≈ 125 µM).

Consider `CC(=O)Nc1ccc(S(=O)(=O)NCc2nc3ccccc3c(=O)n2-c2ccccc2Cl)cc1`, for which the minimum inhibitory concentration (MIC) in the test with Staphylococcus aureus stood at 70 µg/mL (≈ 145 µM); in the test on Klebsiella pneumoniae it was 100 µg/mL (≈ 207 µM); in the test on Escherichia coli, 70 µg/mL (≈ 145 µM); in the test on Candida albicans, 75 µg/mL (≈ 155 µM); in the test with Pseudomonas aeruginosa, 75 µg/mL (≈ 155 µM); with Aspergillus niger it was 60 µg/mL (≈ 124 µM). Further, the MIC in the test with Bacillus cereus came out at 100 µg/mL (≈ 207 µM).

`CC(=O)Nc1ccc(S(=O)(=O)NCc2nc3ccccc3c(=O)n2-c2cccc(Cl)c2)cc1`: the minimal inhibitory concentration (MIC) with Staphylococcus aureus was 65 µg/mL (≈ 135 µM); in the test with Klebsiella pneumoniae, 105 µg/mL (≈ 217 µM); in the test on Escherichia coli, 60 µg/mL (≈ 124 µM); with Candida albicans, 70 µg/mL (≈ 145 µM); in the test with Pseudomonas aeruginosa it was 70 µg/mL (≈ 145 µM); with Aspergillus niger, 55 µg/mL (≈ 114 µM). Besides, in the test with Bacillus cereus, the minimal inhibitory concentration (MIC) is 95 µg/mL (≈ 197 µM).

For `CC(=O)Nc1ccc(S(=O)(=O)NCc2nc3ccccc3c(=O)n2-c2ccc(Cl)cc2)cc1`, the minimum inhibitory concentration (MIC) in the test with Staphylococcus aureus was found to be 60 µg/mL (≈ 124 µM); in the test on Klebsiella pneumoniae it was 85 µg/mL (≈ 176 µM); in the test on Escherichia coli, 60 µg/mL (≈ 124 µM); in the test on Candida albicans, 65 µg/mL (≈ 135 µM); in the test with Pseudomonas aeruginosa, 65 µg/mL (≈ 135 µM); with Aspergillus niger, 55 µg/mL (≈ 114 µM). The minimum inhibitory concentration (MIC) in the test with Bacillus cereus is 90 µg/mL (≈ 186 µM).

Take `Nc1ccc(S(=O)(=O)NCc2nc3ccccc3c(=O)n2-c2cccc(Br)c2)cc1`: the MIC with Staphylococcus aureus amounted to 50 µg/mL (≈ 103 µM); in the test on Klebsiella pneumoniae it was 75 µg/mL (≈ 155 µM); with Escherichia coli it was 50 µg/mL (≈ 103 µM); in the test on Candida albicans, 45 µg/mL (≈ 92.7 µM); with Pseudomonas aeruginosa, 55 µg/mL (≈ 113 µM); in the test on Aspergillus niger, 40 µg/mL (≈ 82.4 µM). Further, in the test with Bacillus cereus, the MIC was 60 µg/mL (≈ 124 µM).

As for `Nc1ccc(S(=O)(=O)NCc2nc3ccccc3c(=O)n2-c2ccc(Br)cc2)cc1`, the minimal inhibitory concentration (MIC) in the test with Staphylococcus aureus turned out to be 55 µg/mL (≈ 113 µM); in the test with Klebsiella pneumoniae, 75 µg/mL (≈ 155 µM); in the test with Escherichia coli, 50 µg/mL (≈ 103 µM); in the test on Candida albicans, 55 µg/mL (≈ 113 µM); with Pseudomonas aeruginosa, 50 µg/mL (≈ 103 µM); with Aspergillus niger it was 45 µg/mL (≈ 92.7 µM). Also, the MIC in the test with Bacillus cereus is 65 µg/mL (≈ 134 µM).

As to `CC(=O)Nc1ccc(S(=O)(=O)NCc2nc3ccccc3c(=O)n2-c2ccccc2Br)cc1`, the minimal inhibitory concentration (MIC) in the test on Staphylococcus aureus turned out to be 70 µg/mL (≈ 133 µM); in the test with Klebsiella pneumoniae, 95 µg/mL (≈ 180 µM); in the test on Escherichia coli it was 65 µg/mL (≈ 123 µM); in the test on Candida albicans it was 70 µg/mL (≈ 133 µM); in the test on Pseudomonas aeruginosa, 75 µg/mL (≈ 142 µM); in the test on Aspergillus niger, 60 µg/mL (≈ 114 µM). In addition, the MIC with Bacillus cereus stood at 95 µg/mL (≈ 180 µM).

`CC(=O)Nc1ccc(S(=O)(=O)NCc2nc3ccccc3c(=O)n2-c2cccc(Br)c2)cc1`: the minimum inhibitory concentration (MIC) with Staphylococcus aureus worked out at 65 µg/mL (≈ 123 µM); in the test with Klebsiella pneumoniae, 90 µg/mL (≈ 171 µM); with Escherichia coli it was 70 µg/mL (≈ 133 µM); in the test with Candida albicans, 70 µg/mL (≈ 133 µM); with Pseudomonas aeruginosa it was 70 µg/mL (≈ 133 µM); in the test with Aspergillus niger, 55 µg/mL (≈ 104 µM). Also, the MIC with Bacillus cereus is 90 µg/mL (≈ 171 µM).

Take `CC(=O)Nc1ccc(S(=O)(=O)NCc2nc3ccccc3c(=O)n2-c2ccc(Br)cc2)cc1`: the MIC with Staphylococcus aureus is 60 µg/mL (≈ 114 µM); with Klebsiella pneumoniae, 90 µg/mL (≈ 171 µM); in the test with Escherichia coli it was 65 µg/mL (≈ 123 µM); in the test with Candida albicans, 60 µg/mL (≈ 114 µM); in the test with Pseudomonas aeruginosa, 65 µg/mL (≈ 123 µM); with Aspergillus niger it was 50 µg/mL (≈ 94.8 µM). In addition, the MIC with Bacillus cereus came to 95 µg/mL (≈ 180 µM).

In the case of `CC1(C)S[C@@H]2[C@H](NC(=O)[C@H](N)c3ccccc3)C(=O)N2[C@H]1C(=O)O` [AMPICILLIN], the minimal inhibitory concentration (MIC) in the test with Staphylococcus aureus came out at 45 µg/mL (≈ 129 µM); in the test on Klebsiella pneumoniae, 85 µg/mL (≈ 243 µM); with Escherichia coli, 50 µg/mL (≈ 143 µM); in the test on Pseudomonas aeruginosa, 55 µg/mL (≈ 157 µM); in the test on Bacillus cereus, 60 µg/mL (≈ 172 µM).

In the case of `CC(=O)N1CCN(c2ccc(OCC3COC(Cn4ccnc4)(c4ccc(Cl)cc4Cl)O3)cc2)CC1` (stereo unspecified) [KETOCONAZOLE], the minimal inhibitory concentration (MIC) in the test with Candida albicans was 50 µg/mL (≈ 94.1 µM); in the test on Aspergillus niger, 40 µg/mL (≈ 75.3 µM).
